Experimental data from US8445691B2, “Heterocyclic thiosubstituted alkanol derivatives” (Bayer CropScience AG, priority 2010, dated 2013).

How the values were obtained:
[1] = test system: Blumeria graminis f.sp. hordei; assay: Blumeria graminis test (barley) / protective; assay type: in vivo; details: 500 ppm active ingredient, protective spray on young barley plants, evaluation 7 days after inoculation; 0% = control, 100% = no infection
Protocol: Blumeria graminis Test (Barley)/Protective
(§1) • Solvent: 49 parts by weight of N,N-dimethylacetamide • Emulsifier: 1 part by weight of alkylaryl polyglycol ether
To produce an appropriate active ingredient formulation, 1 part by weight of active ingredient is mixed with the specified amounts of solvent and emulsifier, and the concentrate is diluted with water to the desired concentration. To test for protective activity, young plants are sprayed with the formulation of active ingredient at the stated application rate. After the spray coating has dried on, the plants are dusted with spores of Blumeria graminis f.sp. hordei. The plants are placed in a greenhouse at a temperature of about 18° C. and a relative air humidity of about 80% to promote the development of mildew pustules. Evaluation follows 7 days after the inoculation. 0% means an efficacy which corresponds to that of the control, whereas an efficacy of 100% means that no infection is observed.

Leptosphaeria nodorum = Leptosphaeria nodorum test (wheat) / protective; assay type: in vivo; details: 500 ppm active ingredient, protective spray on young wheat plants, evaluation 8 days after inoculation; 0% = control, 100% = no infection
Protocol: Leptosphaeria nodorum Test (Wheat)/Protective
as §1
To produce an appropriate active ingredient formulation, I part by weight of active ingredient is mixed with the specified amounts of solvent and emulsifier, and the concentrate is diluted with water to the desired concentration. To test for protective activity, young plants are sprayed with the formulation of active ingredient at the stated application rate. After the spray coating has dried on, the plants are sprayed with spores with a spore suspension of Leptosphaeria nodorum. The plants remain in an incubation cabin at 20° C. and 100% relative air humidity for 48 hours. The plants are placed in a greenhouse at a temperature of about 22° C. and a relative air humidity of about 80%. Evaluation follows 8 days after the inoculation. 0% means an efficacy which corresponds to that of the control, whereas an efficacy of 100% means that no infection is observed.

[2] = logP by reversed-phase HPLC (EEC Directive 79/831 Annex V.A8); assay type: physicochemical; details: method [a]: LC-MS, acidic range pH 2.7, 0.1% aqueous formic acid / acetonitrile, linear gradient 10% to 95% acetonitrile
Protocol: The logP values were measured in accordance with EEC Directive 79/831 Annex V.A8 by HPLC (High Performance Liquid Chromatography) using reversed-phase columns (C 18) by the following methods:
[a] The LC-MS determination in the acidic range is effected at pH 2.7 with 0.1% aqueous formic acid and acetonitrile (contains 0.1% formic acid) as eluents; linear gradient from 10% acetonitrile to 95% acetonitrile.

Alternaria solani = assay: Alternaria test (tomato) / protective; assay type: in vivo; details: 500 ppm active ingredient, protective spray on young tomato plants, evaluation 7 days after inoculation; 0% = control, 100% = no infection
Protocol: Alternaria Test (Tomato)/Protective
(§2) • Solvent: 49 parts by weight of N,N-dimethylformamide • Emulsifier: 1 part by weight of alkylaryl polyglycol ether
To produce an appropriate active ingredient formulation, 1 part by weight of active ingredient is mixed with the specified amounts of solvent and emulsifier, and the concentrate is diluted with water to the desired concentration. To test for protective activity, young tomato plants are sprayed with the active ingredient formulation at the stated application rate. One day after the treatment, the plants are inoculated with a spore suspension of Alternaria solani and are then left to stand at 100% relative humidity and 22° C. for 24 h. Subsequently, the plants are left to stand at 96% relative air humidity and a temperature of 20° C. Evaluation follows 7 days after the […]. 0% means an efficacy which corresponds to that of the control, whereas an efficacy of 100% means that no infection is observed.

Sphaerotheca fuliginea = assay: Sphaerotheca test (cucumber) / protective; assay type: in vivo; details: 500 ppm active ingredient, protective spray on young cucumber plants, evaluation 7 days after inoculation; 0% = control, 100% = no infection
Protocol: Sphaerotheca Test (Cucumber)/Protective
as §2
To produce an appropriate active ingredient formulation, 1 part by weight of active ingredient is mixed with the specified amounts of solvent and emulsifier, and the concentrate is diluted with water to the desired concentration. To test for protective activity, young cucumber plants are sprayed with the formulation of active ingredient at the stated application rate. 1 day after the treatment, the plants are inoculated with a spore suspension of Sphaerotheca fuliginea. The plants are then placed in a greenhouse at 70% relative air humidity and a temperature of 23° C. Evaluation follows 7 days after the inoculation. 0% means an efficacy which corresponds to that of the control, whereas an efficacy of 100% means that no infection is observed.

| SMILES | efficacy [1] [%] | efficacy (Leptosphaeria nodorum) [%] | chromatographic logP ([2]; reversed-phase C18 HPLC column) | logP ([2]; C18 reversed phase) | efficacy (Alternaria solani) [%] | efficacy (Sphaerotheca fuliginea) [%] |
| --- | --- | --- | --- | --- | --- | --- |
| CC(C)(C)C(O)(CSc1ccc(Br)cc1)c1cncs1 (stereo not shown) [Compound 1, 1-[(4-bromophenyl)sulphanyl]-3,3-dimethyl-2-(1,3-thiazol-5-yl)butan-2-ol] | 89 | 92 |  |  |  |  |
| CC(CF)(CF)C(O)(CSc1ccc(Br)cc1)c1cncs1 (stereo not shown) [Compound 3] | 100 | 100 | 3.27 |  |  |  |
| CC(C)(C)C(O)(CSc1ccc(C(F)(F)F)cc1)c1cncs1 (stereo not shown) [Compound 57] | 80 | 90 |  | log p 3.76^[a] | 100 | 80 |
